The source of these data is patent US10703779B2, “Oxadiazole cyclic peptides” (THE GOVERNING COUNCIL OF THE UNIVERSITY OF TORONTO, priority 2015, dated 2020).

The conditions of data set [1]: multicomponent bond.
The conditions of data set [2]: multicomponent bond; 18-membered ring; propionaldehyde/(N-isocyanimino)triphenylphosphorane; 25.0 °C.
Data set [3] can be described thus: passive artificial membrane permeability (PAMPA) assay. The format is in vitro ADME. The conditions noted are these: FIG. 10, oxadiazole-containing macrocycles (entries 1-7) compared with homodetic counterparts (entries 8-12). From the text:
Passive membrane permeability is an important property for the development of new therapeutics. […] Using this analysis method a −log Pe value <6.0 is indicitive of a passively membrane permeable compound, while a −log Pe>6.0 is indicative of a poorly permeable or non-permeable compound. […] (entry 12).

The mark [4] stands for this setting: 15-membered ring, propionaldehyde/(N-isocyanimino)triphenylphosphorane, DCE/MeCN 1:1, 25.0 mM, 50.0 °C.
Where [5] appears, read: 18-membered ring, propionaldehyde/(N-isocyanimino)triphenylphosphorane, DCE/MeCN 1:1, 25.0 mM, 50.0 °C.
The mark [6] stands for this setting: 18-membered ring, propionaldehyde/(N-isocyanimino)triphenylphosphorane, DCE/MeCN 1:1, 25.0 mM, 50.0 °C, 2 steps.
Setting [7] is: 18-membered ring, propionaldehyde/(N-isocyanimino)triphenylphosphorane, DCE/MeCN 1:1, 20.0 mM, 50.0 °C.
Setting [8] is: 21-membered ring, propionaldehyde/(N-isocyanimino)triphenylphosphorane, DCE/MeCN 1:1, 25.0 mM, 50.0 °C, 2 steps.
Where [9] appears, read: 21-membered ring, propionaldehyde/(N-isocyanimino)triphenylphosphorane, DCE/MeCN 1:1, 25.0 mM, 50.0 °C.
Where [10] appears, read: 18-membered ring, phenylacetaldehyde/(N-isocyanimino)triphenylphosphorane, DCE/MeCN 1:1, 25.0 mM, 50.0 °C, 2 steps.

Values joined by “and” are separate entries in the source; they are usually repeats but may differ in a detail not shown here. Equal entries are not always repeated. Where two headings read alike, the source gives them in different places.

On to AGFA, for which the results for the ring closure, isolated yield in data set [1] (15-membered ring) and in data set [1] (setting [4]) were 32% and 24%, respectively.
The substance ALFA displayed a ring closure, isolated yield in data set [1] (setting [4]) of 20%.
APLGA came in with a ring closure, isolated yield in data set [1] (setting [5]) of 15%.
Substance APLGK came in with a ring closure, isolated yield in data set [1] (setting [6]) of 60%.
For the substance APLGS, the ring closure, isolated yield in data set [1] (setting [6]) was found to be 70%.
Regarding GPLGA, the ring closure, isolated yield in data set [1] (18-membered ring) was 13% and 25%; in data set [1] (setting [5]), 20%.
Regarding PAFA, the ring closure, isolated yield in data set [1] (setting [4]) turned out to be 23%.
Take PALAF: the ring closure, isolated yield in data set [1] (setting [7]) was determined as 20%.
Still for that read-out and setting: as for PALGF, the figure is 25%.
The substance PASWKG had a ring closure, isolated yield in data set [1] (setting [8]) of 7%.
For PDAWG, the ring closure, isolated yield in data set [1] (setting [6]) was 22%.
As to PDAWYG, the ring closure, isolated yield in data set [1] (setting [8]) worked out at 28%.
Turning to PFDLA, the ring closure, isolated yield in data set [1] (setting [6]) was 45%.
For the substance PFLDA, the ring closure, isolated yield in data set [1] (18-membered ring, acetone/(N-isocyanimino)triphenylphosphorane, DCE/MeCN 1:1 + acetone 30% v/v, 25.0 mM, 50.0 °C, 2 steps) is 10%.
Take PFLLF: the ring closure, isolated yield in data set [1] (18-membered ring, propionaldehyde/(N-isocyanimino)triphenylphosphorane, DCE/MeCN 1:1, 16.7 mM, 50.0 °C) was 25%.
In the case of PGLAF, the ring closure, isolated yield in data set [1] (setting [7]) came out at 23%.
PGLGF: the ring closure, conversion in data set [2] came out at 100%. In addition, the ring closure, isolated yield in data set [1] (18-membered ring) worked out at 32%; in data set [1] (18-membered ring, phenylacetaldehyde/(N-isocyanimino)triphenylphosphorane, DCE/MeCN 1:1, 25.0 mM, 50.0 °C), 29%; in data set [1] (18-membered ring, propionaldehyde/(N-isocyanimino)triphenylphosphorane, DCE/MeCN 1:1, 50.0 mM, 25.0 °C), 68%.
In the case of PGLGFA, the ring closure, isolated yield in data set [1] (setting [9]) is 41%.
PGRGDWA displayed a ring closure, isolated yield in data set [1] (24-membered ring, propionaldehyde/(N-isocyanimino)triphenylphosphorane, DCE/MeCN 1:1, 25.0 mM, 50.0 °C, 2 steps) of 22%.
With PLDFA, the ring closure, isolated yield in data set [1] (setting [6]) turned out to be 52%.
In data set [1] (setting [6]), PRGDA gave a ring closure, isolated yield of 70%.
Still for that read-out and setting: under PSLYA stands 24%.
PSLYG yielded a ring closure, isolated yield in data set [1] (setting [10]) of 22%.
PSWAG displayed a ring closure, isolated yield in data set [1] (setting [10]) of 26%.
For PSarLGF, the ring closure, isolated yield in data set [1] (18-membered ring, α-MIDA-borylaldehyde/(N-isocyanimino)triphenylphosphorane, DCE/MeCN 1:1, 25.0 mM, 50.0 °C) turned out to be 28%.
Turning to PSarLGFA, the ring closure, isolated yield in data set [1] (setting [9]) is 42%.
In the case of PWASG, in data set [1] (setting [6]), the ring closure, isolated yield is 28%.
Turning to cyclo(PFLLFA), the “passive membrane permeability (result in words)” value in data set [3] was “single exception”.
